Test results: ChEMBL document CHEMBL4609984, “Design, synthesis and biological evaluation of imidazole and oxazole fragments as HIV-1 integrase-LEDGF/p75 disruptors and inhibitors of microbial pathogens” (Bioorg Med Chem, 2020)
Values after ≈ are worked out from the molar mass of the structure shown. Active and inactive are the calls of the source. The calls are words filed in the database; no cut-off is given here.

Assays:
Staphylococcus aureus = test: Antibacterial activity against Staphylococcus aureus ATCC 25923 assessed as reduction in bacterial growth incubated for 24 hrs by INT dye based assay; assay type: functional; details: ATCC 25923, 24 h
Bacillus cereus = test: Antibacterial activity against Bacillus cereus ATCC 11779 assessed as reduction in bacterial growth incubated for 24 hrs by INT dye based assay; assay type: functional; details: ATCC 11779, 24 h
Escherichia coli = test: Antibacterial activity against Escherichia coli ATCC 8739 assessed as reduction in bacterial growth incubated for 24 hrs by INT dye based assay; assay type: functional; details: ATCC 8739, 24 h
Pseudomonas aeruginosa = test: Antibacterial activity against Pseudomonas aeruginosa ATCC 27858 assessed as reduction in bacterial growth incubated for 24 hrs by INT dye based assay; assay type: functional; details: ATCC 27858, 24 h
[1] = target: Human immunodeficiency virus type 1 integrase (Human immunodeficiency virus 1) (UniProt Q7ZJM1); test: Inhibition of HIV-1 integrase assessed as inhibition of interaction of HIV-1 IN with LEDGF/p75 (unknown origin) at 10 uM preincubated with enzyme for 30 mins followed by further incubation with LEDGF/p75 for 1 hr by Alphascreen assay relative to control
Human immunodeficiency virus type 1 integrase (Human immunodeficiency virus 1), sequence (Q7ZJM1 as listed by the source): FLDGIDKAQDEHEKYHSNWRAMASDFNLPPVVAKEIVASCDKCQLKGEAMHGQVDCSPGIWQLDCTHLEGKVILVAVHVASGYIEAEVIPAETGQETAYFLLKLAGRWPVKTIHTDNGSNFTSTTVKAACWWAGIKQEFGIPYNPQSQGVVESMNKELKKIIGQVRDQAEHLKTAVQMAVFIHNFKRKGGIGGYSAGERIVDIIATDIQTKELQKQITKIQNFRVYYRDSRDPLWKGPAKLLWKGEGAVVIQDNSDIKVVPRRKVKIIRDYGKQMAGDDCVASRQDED

MT4 = test: Cytotoxicity against human MT4 cells assessed as reduction in cell viability at 10 uM incubated for 5 days by MTS assay; assay type: cell-based; details: mt4, 120 h
[2] = target: Human immunodeficiency virus type 1 integrase (Human immunodeficiency virus 1, UniProt Q7ZJM1); test: Inhibition of HIV-1 integrase assessed as inhibition of interaction of HIV-1 IN with LEDGF/p75 (unknown origin) preincubated with enzyme for 30 mins followed by further incubation with LEDGF/p75 for 1 hr by Alphascreen assay
Human immunodeficiency virus type 1 integrase, sequence (Q7ZJM1 whole entry): as the sequence (Q7ZJM1 as listed by the source) above

[3] = target: Human immunodeficiency virus type 1 integrase (Human immunodeficiency virus 1) (UniProt Q7ZJM1); test: Inhibition of HIV-1 integrase assessed as inhibition of interaction of HIV-1 IN with LEDGF/p75 (unknown origin) at 10 uM incubated for 1 hr by Alphascreen TruHits counter assay
[4] = Cytotoxicity against human MT4 cells assessed as reduction in cell viability incubated for 5 days by MTS assay; assay type: cell-based
[5] = tested on: Human immunodeficiency virus 1; test: Antiviral activity against HIV-1 NL4-3 infected in human MT4 cells assessed as reduction in p24 gag protein at 10 uM incubated for 5 days by ELISA; assay type: functional, organism-based
[6] = tested on: Human immunodeficiency virus 1; test: Antiviral activity against HIV-1 NL4-3 infected in human MT4 cells assessed as reduction in p24 gag protein incubated for 5 days by ELISA; assay type: functional, organism-based; details: Human immunodeficiency virus 1, NL4-3, MT4, 120 h
Candida tropicalis = test: Antimicrobial activity against Candida tropicalis ATCC 750 assessed as reduction in fungal growth incubated for 48 hrs by INT dye based assay; assay type: functional

Compound	inhibition [1] [%]	Activity (MT4)	also measured
O=C(O)c1cn(C2CC2)c2cc(N3CCNCC3)c(F)cc2c1=O [CIPROFLOXACIN]	–	–	MIC (Staphylococcus aureus): 0.156 µg/mL (≈ 0.471 µM); MIC (Bacillus cereus): 0.156 µg/mL (≈ 0.471 µM); MIC (Escherichia coli): 0.313 µg/mL (≈ 0.945 µM); MIC (Pseudomonas aeruginosa): 0.313 µg/mL (≈ 0.945 µM)
O=[N+]([O-])c1ccc(-c2cnco2)cc1	33	Non-Toxic	–
Cc1ccc(S(=O)(=O)[C@H]2N=CO[C@@H]2c2ccccc2)cc1 (racemic)	34	Non-Toxic	–
Clc1ccccc1-c1cnco1	33	Non-Toxic	–
O=[N+]([O-])c1ccc(-c2cncn2C2CCCCC2)cc1	–	Non-Toxic	–
Fc1ccc(-c2cnco2)cc1	23	Non-Toxic	–
COc1cccc(-c2cncn2C2CCCCC2)c1	55	Non-Toxic	IC50 [2]: 21.9 µM; inhibition [3]: Active; CC50 at 120 h [4]: 27.7 µM; Activity [5]: inactive; EC50 [6]: > 10 µM; MIC (Staphylococcus aureus): 62.5 µg/mL (≈ 244 µM); MIC (Bacillus cereus): 62.5 µg/mL (≈ 244 µM); MIC (Escherichia coli): > 250 µg/mL; MIC (Pseudomonas aeruginosa): > 250 µg/mL; MIC (Candida tropicalis; ATCC 750, 48 h): 62.5 µg/mL (≈ 244 µM)
CCCCn1cncc1-c1ccccc1[N+](=O)[O-]	30	Non-Toxic	–
Clc1ccccc1-c1cncn1C1CCCCC1	31	Non-Toxic	–
CCCCn1cncc1-c1ccc(C(C)(C)C)cc1	56	Non-Toxic	IC50 [2]: 22.4 µM; inhibition [3]: Active; CC50 at 120 h [4]: 23.9 µM; Activity [5]: inactive; EC50 [6]: > 10 µM; MIC (Staphylococcus aureus): 15.6 µg/mL (≈ 60.8 µM); MIC (Bacillus cereus): 31.3 µg/mL (≈ 122 µM); MIC (Escherichia coli): 250 µg/mL (≈ 975 µM); MIC (Pseudomonas aeruginosa): 250 µg/mL (≈ 975 µM); MIC (Candida tropicalis; ATCC 750, 48 h): 31.3 µg/mL (≈ 122 µM)
COc1ccc(-c2cncn2-c2ccc(Br)cc2)c(OC)c1	52	Non-Toxic	IC50 [2]: 7 µM; inhibition [3]: Active; CC50 at 120 h [4]: 55.5 µM; Activity [5]: inactive; EC50 [6]: > 10 µM
CC(C)(C)c1ccc(-c2cncn2C2CCCCC2)cc1	62	Non-Toxic	IC50 [2]: 14.6 µM; inhibition [3]: Active; CC50 at 120 h [4]: 21.8 µM; Activity [5]: inactive; EC50 [6]: > 10 µM; MIC (Staphylococcus aureus): 62.5 µg/mL (≈ 221 µM); MIC (Bacillus cereus): 15.6 µg/mL (≈ 55.2 µM); MIC (Escherichia coli): > 250 µg/mL; MIC (Pseudomonas aeruginosa): > 250 µg/mL; MIC (Candida tropicalis; ATCC 750, 48 h): 31.3 µg/mL (≈ 111 µM)
CCCCn1cncc1-c1ccccc1Cl	37	Non-Toxic	–
CC(C)(C)c1ccc(-c2cnco2)cc1	35	Non-Toxic	–
COc1cccc(-c2cncn2C2CC2)c1	40	Non-Toxic	–
CCCCn1cncc1-c1ccc(F)cc1	30	Non-Toxic	–
Cc1ccc(S(=O)(=O)[C@H]2N=CO[C@@H]2c2ccccc2[N+](=O)[O-])cc1 (racemic)	38	Non-Toxic	–
COc1ccc(-c2cncn2C2CCCCC2)c(OC)c1	40	Non-Toxic	MIC (Staphylococcus aureus): 62.5 µg/mL (≈ 218 µM); MIC (Bacillus cereus): 250 µg/mL (≈ 873 µM); MIC (Escherichia coli): > 250 µg/mL; MIC (Pseudomonas aeruginosa): > 250 µg/mL; MIC (Candida tropicalis; ATCC 750, 48 h): 125 µg/mL (≈ 436 µM)
c1ccc(Cn2cncc2-c2ccc3c(c2)OCO3)cc1	43	Non-Toxic	–
Fc1ccc(-c2cncn2C2CC2)cc1	31	Non-Toxic	–
CCCCn1cncc1-c1cccc(OC)c1	51	Non-Toxic	IC50 [2]: 30.5 µM; inhibition [3]: Active; CC50 at 120 h [4]: 29.6 µM; Activity [5]: inactive; EC50 [6]: > 10 µM; MIC (Staphylococcus aureus): > 250 µg/mL; MIC (Bacillus cereus): 62.5 µg/mL (≈ 271 µM); MIC (Escherichia coli): 125 µg/mL (≈ 543 µM); MIC (Pseudomonas aeruginosa): > 250 µg/mL; MIC (Candida tropicalis; ATCC 750, 48 h): 62.5 µg/mL (≈ 271 µM)

Compound	inhibition [1] [%]	Activity (MT4)	also measured
COc1ccc(-c2cnco2)c(OC)c1	42	Non-Toxic	–
COc1ccc(-c2cncn2Cc2ccccc2)c(OC)c1	17	Non-Toxic	MIC (Staphylococcus aureus): 62.5 µg/mL (≈ 212 µM); MIC (Bacillus cereus): 125 µg/mL (≈ 425 µM); MIC (Escherichia coli): > 250 µg/mL; MIC (Pseudomonas aeruginosa): > 250 µg/mL; MIC (Candida tropicalis; ATCC 750, 48 h): 250 µg/mL (≈ 849 µM)
Fc1ccc(-c2cncn2-c2ccc(Br)cc2)cc1	52	Non-Toxic	IC50 [2]: 25.1 µM; inhibition [3]: Active; CC50 at 120 h [4]: 48 µM; Activity [5]: inactive; EC50 [6]: > 10 µM
c1ncc(-c2ccc3c(c2)OCO3)o1	35	Non-Toxic	–
CCCCn1cncc1-c1ccc2c(c1)OCCO2	21	Non-Toxic	–
COc1cccc(-c2cncn2Cc2ccccc2)c1	21	Non-Toxic	–
O=[N+]([O-])c1ccccc1-c1cncn1C1CCCCC1	–	Non-Toxic	–
Fc1ccc(-c2cncn2C2CCCCC2)cc1	45	Non-Toxic	–
O=[N+]([O-])c1ccccc1-c1cnco1	30	Non-Toxic	–
COc1ccc(-c2cncn2C2CC2)c(OC)c1	28	Non-Toxic	–
CCCCn1cncc1-c1ccc2c(c1)OCO2	35	Non-Toxic	MIC (Bacillus cereus): 31.3 µg/mL (≈ 128 µM); MIC (Escherichia coli): > 250 µg/mL; MIC (Pseudomonas aeruginosa): > 250 µg/mL
CCCCn1cncc1-c1ccc(OC)cc1OC	26	Non-Toxic	–
NYSTATIN	–	–	MIC (Candida tropicalis): 1.25 µg/mL
c1ccc(-c2cnco2)cc1	31	Non-Toxic	–
CCCCn1cncc1-c1ccc([N+](=O)[O-])cc1	27	Non-Toxic	–
COc1cccc(-c2cnco2)c1	33	Non-Toxic	–
Brc1ccc(-n2cncc2-c2ccc3c(c2)OCO3)cc1	48	Non-Toxic	–
c1cc2c(cc1-c1cncn1C1CCCCC1)OCO2	40	Non-Toxic	–
Cc1ccc(S(=O)(=O)[C@H]2N=CO[C@@H]2c2ccc3c(c2)OCO3)cc1 (racemic)	33	Non-Toxic	–
Fc1ccc(-c2cncn2Cc2ccccc2)cc1	25	Non-Toxic	MIC (Staphylococcus aureus): 62.5 µg/mL (≈ 248 µM); MIC (Bacillus cereus): 125 µg/mL (≈ 495 µM); MIC (Escherichia coli): > 250 µg/mL; MIC (Pseudomonas aeruginosa): > 250 µg/mL; MIC (Candida tropicalis; ATCC 750, 48 h): > 250 µg/mL
